Assay results from article PMC3135721 (Journal of medicinal chemistry, 2010).

Molecular target: TSPO (Rattus norvegicus, UniProt P16257)
Assay: Inhibition of [3H]1 binding to rat kidney mitochondrial membranes
Conditions: ratio of Ki, 20 vs Ib, 21 vs Ic

Row | gain in activity with respect to desmethyl counterpart | Structure (SMILES)
1 | 4.6 | CCCCCCN(CCCCCC)C(=O)C(=O)c1c(-c2ccccc2)n(C)c2ccccc12 [compound 21]
2 | 25 | CCCCN(CCCC)C(=O)C(=O)c1c(-c2ccccc2)n(C)c2ccccc12 [compound 20]
